What all share (experiment): isothermal titration calorimetry
Holding throughout (assay type): binding

Test [1] addresses T1, human DIPP1 (DIPP1 1-148) (Homo sapiens, UniProt O95989, H42A).
T1 sequence (O95989 1-148 H42A): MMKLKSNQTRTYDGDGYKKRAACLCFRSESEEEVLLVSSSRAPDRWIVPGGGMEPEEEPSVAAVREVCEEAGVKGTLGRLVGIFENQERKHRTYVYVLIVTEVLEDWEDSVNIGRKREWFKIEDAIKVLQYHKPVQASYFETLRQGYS

Test [2] has as its target T2, human DIPP1 (DIPP1 1-148) (Homo sapiens, UniProt O95989).
T2 sequence (O95989 1-148): T1 sequence (O95989 1-148 H42A) with A42H

The target of test [3] is T3, human DIPP1 (DIPP1 1-148) (Homo sapiens, UniProt O95989, R45A).
T3 sequence (O95989 1-148 R45A): T1 sequence (O95989 1-148 H42A) with A42H, R45A

Test [4] deals with T4, human DIPP1 (DIPP1 1-148) (Homo sapiens, UniProt O95989, K18A).
T4 sequence (O95989 1-148 K18A): T1 sequence (O95989 1-148 H42A) with K18A, A42H

Test [5] has as its target T5, human DIPP1 (DIPP1 1-148) (Homo sapiens, UniProt O95989, H42A/R45A).
T5 sequence (O95989 1-148 H42A/R45A): T1 sequence (O95989 1-148 H42A) with R45A

Test [6] addresses T6, human DIPP1 (DIPP1 1-148) (Homo sapiens, UniProt O95989, R41A).
T6 sequence (O95989 1-148 R41A): T1 sequence (O95989 1-148 H42A) with R41A, A42H

Positions count from the first letter of the chain named.

As a reminder, the Kd is the free concentration of one partner at which half of the binding sites on the other are occupied at equilibrium, for simple one-to-one binding.

On to `O=P(O)(O)O[C@@H]1[C@@H](OP(=O)(O)O)[C@H](OP(=O)(O)OP(=O)(O)O)[C@@H](OP(=O)(O)O)[C@H](OP(=O)(O)OP(=O)(O)O)[C@@H]1OP(=O)(O)O` [1,5-InsP8, 1,5-bis-diphosphoinositol 2,3,4,6-tetrakisphosphate], for which the Kd in test [1] is 510 ± 100 nM; in test [2] it was 158 ± 9 nM; in test [3], 360 ± 50 nM; in test [4], 4.99 ± 0.62 µM; in test [5], 1060 ± 90 nM; in test [6], 460 ± 50 nM.
Compound `O=P(O)(O)O[C@@H]1[C@@H](OP(=O)(O)OP(=O)(O)O)[C@H](OP(=O)(O)O)[C@@H](OP(=O)(O)O)[C@@H](O)[C@H]1OP(=O)(O)O` [5-PP-InsP4, 5-diphosphoinositol 1,3,4,6-tetrakisphosphate] showed a Kd in test [2] of 251 ± 31 nM.

These data come from PMC7839254 (FASEB journal : official publication of the Federation of …, 2021).
